Values quoted from earlier work as cited in patent publication US7985733B1, “Buffer-based method for preparing bivalirudin drug product” (The Medicines Company, priority 2010, dated 2011).

Experiments:
[1] = 25° C.
[2] = pH at which the molecule carries no net charge
[3] = statement of CN 101244043

## O=S(=O)(O)CCN1CCN(CCS(=O)(=O)O)CC1 [Piperazine-1,4-bis(2-ethanesulfonic acid)]
[1]
  pKa: 6.8

## CC[C@H](C)[C@H](NC(=O)[C@H](CCC(=O)O)NC(=O)[C@H](CCC(=O)O)NC(=O)[C@H](Cc1ccccc1)NC(=O)[C@H](CC(=O)O)NC(=O)CNC(=O)[C@H](CC(N)=O)NC(=O)CNC(=O)CNC(=O)CNC(=O)CNC(=O)[C@@H]1CCCN1C(=O)[C@H](CCCNC(=N)N)NC(=O)[C@@H]1CCCN1C(=O)[C@H](N)Cc1ccccc1)C(=O)N1CCC[C@H]1C(=O)N[C@@H](CCC(=O)O)C(=O)N[C@@H](CCC(=O)O)C(=O)N[C@@H](Cc1ccc(O)cc1)C(=O)N[C@@H](CC(C)C)C(=O)O [bivalirudin, D-Phenylalanyl-L-Prolyl-L-Arginyl-L-Prolyl-Glycyl-Glycyl-Glycyl-Glycyl-L-Asparagyl-Glycyl-L-Aspartyl-L-Phenylalanyl-L-Glutamyl-L-Glutamyl-L-Isoleucyl-L-Prolyl-L-Glutamyl-L-Glutamyl-L-Tyrosyl-L-Leucine]
[2]
  isoelectric point (pI): about 3.6
[3]
  solubility in water: easily soluble in water

## Maleate
[1]
  pKa (pK1): 2.0
  pKa (pK2): 6.2
